Reference: the NIST ThermoML archive (doi:10.1021/je060271a)
Numbers after ± are expanded uncertainties.

Details: 343.15 K, Liquid, Vibrating tube method

CCCCCCC(=O)OCC(COC(=O)CCCCCC)(COC(=O)CCCCCC)COC(=O)CCCCCC [pentaerythritol tetraheptanoate]
Details | mass density [kg/m3]
2184.4 kPa | 942.3 ± 1.1
2195 kPa | 942.3 ± 1.1
2206.1 kPa | 942.2 ± 1.1
2216.5 kPa | 942.3 ± 1.1
2228.9 kPa | 942.4 ± 1.2
2239.4 kPa | 942.3 ± 1.1
2249.8 kPa | 942.2 ± 1.1
2260.8 kPa | 942.3 ± 1.2
2273.8 kPa | 942.3 ± 1.1
2284.7 kPa | 942.3 ± 1.1
2295.3 kPa | 942.4 ± 1.1
2308.5 kPa | 942.3 ± 1.1
2319.6 kPa | 942.4 ± 1.2
2330.5 kPa | 942.4 ± 1.1
2344.6 kPa | 942.3 ± 1.1
2356.7 kPa | 942.4 ± 1.2
2368 kPa | 942.5 ± 1.2
2379.5 kPa | 942.3 ± 1.2
2390.7 kPa | 942.3 ± 1.2
2405 kPa | 942.2 ± 1.1
2416.9 kPa | 942.4 ± 1.1
2428.7 kPa | 942.4 ± 1.1
2442.8 kPa | 942.5 ± 1.2
2454.7 kPa | 942.4 ± 1.2
2466.9 kPa | 942.5 ± 1.1
2481.6 kPa | 942.5 ± 1.1
2493.9 kPa | 942.5 ± 1.2
2506.3 kPa | 942.7 ± 1.2
2518.9 kPa | 942.4 ± 1.2
2534.2 kPa | 942.4 ± 1.2
2546.7 kPa | 942.6 ± 1.1
2559.3 kPa | 942.5 ± 1.2
2574.1 kPa | 942.5 ± 1.2
2587.4 kPa | 942.5 ± 1.2
2600.6 kPa | 942.5 ± 1.1
2616.2 kPa | 942.5 ± 1.1
2629.4 kPa | 942.6 ± 1.2
2642.8 kPa | 942.7 ± 1.2
2656.5 kPa | 942.6 ± 1.1
2672.6 kPa | 942.7 ± 1.2
2686.5 kPa | 942.7 ± 1.2
2700.9 kPa | 942.7 ± 1.2
2714.7 kPa | 942.6 ± 1.2
2731.4 kPa | 942.6 ± 1.2
2745.6 kPa | 942.6 ± 1.1
2759.8 kPa | 942.7 ± 1.2
2777 kPa | 942.7 ± 1.2
2791.7 kPa | 942.6 ± 1.2
2806.1 kPa | 942.7 ± 1.2
2823.8 kPa | 942.7 ± 1.2
2838.2 kPa | 942.7 ± 1.2
2853.3 kPa | 942.7 ± 1.2
2871.1 kPa | 942.8 ± 1.2
2886.2 kPa | 942.8 ± 1.2
2902 kPa | 942.8 ± 1.2
2917.3 kPa | 942.9 ± 1.2
2935.8 kPa | 942.8 ± 1.2
2951.4 kPa | 942.8 ± 1.2
2967.4 kPa | 942.8 ± 1.2
2986.5 kPa | 942.9 ± 1.2
3002.7 kPa | 942.8 ± 1.2
3018.9 kPa | 942.9 ± 1.2
3038.1 kPa | 942.9 ± 1.2
3054.6 kPa | 942.8 ± 1.2
3071.2 kPa | 943 ± 1.2
3088.2 kPa | 943 ± 1.2
3108.3 kPa | 943 ± 1.2
3125.5 kPa | 942.9 ± 1.2
3142.7 kPa | 943 ± 1.2
3163.3 kPa | 942.9 ± 1.2
3181 kPa | 943 ± 1.2
3198.1 kPa | 943 ± 1.2
3219.1 kPa | 943 ± 1.2
3237.1 kPa | 943 ± 1.2
3254.6 kPa | 943 ± 1.2
3276.5 kPa | 943.1 ± 1.2
3294.7 kPa | 943.2 ± 1.2
3313 kPa | 943.2 ± 1.2
3335.1 kPa | 943.2 ± 1.2
3354.3 kPa | 943.1 ± 1.2
3373.4 kPa | 943.2 ± 1.2
3392.3 kPa | 943 ± 1.2
3411.7 kPa | 943.3 ± 1.2
3435.1 kPa | 943.2 ± 1.2
3454.3 kPa | 943.2 ± 1.2
3473.9 kPa | 943.2 ± 1.2
3497.6 kPa | 943.2 ± 1.2
3517.4 kPa | 943.2 ± 1.2
3537.3 kPa | 943.3 ± 1.2
3561.7 kPa | 943.3 ± 1.2
3582.2 kPa | 943.4 ± 1.2
3603.3 kPa | 943.2 ± 1.2
3625.8 kPa | 943.3 ± 1.2
3646.8 kPa | 943.3 ± 1.2
3672.1 kPa | 943.3 ± 1.2
3693.4 kPa | 943.5 ± 1.2
3715.2 kPa | 943.4 ± 1.2
3736.7 kPa | 943.4 ± 1.2
3763.2 kPa | 943.5 ± 1.2
3785.2 kPa | 943.4 ± 1.2
3807.8 kPa | 943.5 ± 1.2
3834.6 kPa | 943.5 ± 1.2
3857.8 kPa | 943.4 ± 1.2
3885.7 kPa | 943.5 ± 1.2
3909.5 kPa | 943.5 ± 1.2
3934.6 kPa | 943.5 ± 1.2
3958.1 kPa | 943.7 ± 1.2
3981.8 kPa | 943.5 ± 1.2
4005.9 kPa | 943.6 ± 1.2
4035 kPa | 943.6 ± 1.2
4059.1 kPa | 943.7 ± 1.2
4088.5 kPa | 943.7 ± 1.2
